The target of series [1] is Cyclin-dependent kinase 4/cyclin D1 (Homo sapiens, UniProt P11802). In words: Inhibition of recombinant human full-length GST-tagged CDK4/cyclinD1 expressed in baculovirus expression system using PEP as substrate incubated for 3 mins in presence of ATP by TR-FRET assay. A general note: In TR-FRET formats the signal depends on donor and acceptor labels being close together.

The target in series [2] is CDK9/cyclin T1 (Homo sapiens, UniProt P50750). As to the kind of experiment: Inhibition of human full-length N-terminal GST-fused CDK9 (1 to 372 residues)/His-tagged Cyclin-T1 (1 to 726 residues) expressed in baculovirus expression system using PEP as substrate incubated for 17 mins in presence of ATP by TR-FRET assay.
Series [3] concerns the target CDK6/cyclin D3 (Homo sapiens, UniProt Q00534). As to the kind of experiment: Inhibition of human full-length N-terminal GST tagged CDK6 (1 to 326 residues)/cyclinD3 (1 to 292 residues) expressed in baculovirus expression system using PEP as substrate incubated for 3 mins in presence of ATP by TR-FRET assay.
Series [4] is described as follows: Oral bioavailability in rat at 100 mg/kg administered as single dose measured up to 48 hrs by LC-MS/MS analysis. The format is ADME, organism-based. The following applies: in vivo.
Series [5] can be described thus: Half life in rat at 100 mg/kg, po measured up to 48 hrs by LC-MS/MS analysis. The format is ADME, organism-based. As to conditions: in vivo.

The structures appear in SMILES notation. Where only a bound is given, the exact number is not on record here.

The term IC50 denotes the concentration needed to halve the response being measured. For orientation: bioavailability means the share of a dose that reaches the circulation, judged against a reference dose that is usually intravenous. Read a low bioavailability as poor availability. Usually half-life stands for the time needed for the level to fall by half in the phase considered. A lower half-life goes with rapid decline.

Chain of CDK6/cyclin D3 (P30281 whole entry, the tested form may be a part): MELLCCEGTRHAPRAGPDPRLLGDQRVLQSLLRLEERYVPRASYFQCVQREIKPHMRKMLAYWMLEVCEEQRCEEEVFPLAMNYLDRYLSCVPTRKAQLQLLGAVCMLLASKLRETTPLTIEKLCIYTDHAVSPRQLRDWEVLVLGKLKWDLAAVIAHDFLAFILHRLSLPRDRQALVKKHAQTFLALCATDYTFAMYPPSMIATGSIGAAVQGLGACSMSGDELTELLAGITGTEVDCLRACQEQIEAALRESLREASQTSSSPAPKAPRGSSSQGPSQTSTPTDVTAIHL
Chain of CDK6/cyclin D3 (Q00534 whole entry, the tested form may be a part): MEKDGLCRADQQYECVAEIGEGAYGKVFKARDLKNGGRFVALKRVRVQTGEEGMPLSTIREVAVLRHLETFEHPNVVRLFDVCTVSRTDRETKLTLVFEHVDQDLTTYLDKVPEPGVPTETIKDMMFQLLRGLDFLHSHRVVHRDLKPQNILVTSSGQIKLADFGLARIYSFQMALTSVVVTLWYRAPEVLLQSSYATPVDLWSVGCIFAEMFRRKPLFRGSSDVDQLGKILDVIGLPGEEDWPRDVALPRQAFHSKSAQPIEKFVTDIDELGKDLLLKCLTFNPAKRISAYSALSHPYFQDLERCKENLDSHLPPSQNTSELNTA
Chain of CDK9/cyclin T1 (O60563 whole entry, the tested form may be a part): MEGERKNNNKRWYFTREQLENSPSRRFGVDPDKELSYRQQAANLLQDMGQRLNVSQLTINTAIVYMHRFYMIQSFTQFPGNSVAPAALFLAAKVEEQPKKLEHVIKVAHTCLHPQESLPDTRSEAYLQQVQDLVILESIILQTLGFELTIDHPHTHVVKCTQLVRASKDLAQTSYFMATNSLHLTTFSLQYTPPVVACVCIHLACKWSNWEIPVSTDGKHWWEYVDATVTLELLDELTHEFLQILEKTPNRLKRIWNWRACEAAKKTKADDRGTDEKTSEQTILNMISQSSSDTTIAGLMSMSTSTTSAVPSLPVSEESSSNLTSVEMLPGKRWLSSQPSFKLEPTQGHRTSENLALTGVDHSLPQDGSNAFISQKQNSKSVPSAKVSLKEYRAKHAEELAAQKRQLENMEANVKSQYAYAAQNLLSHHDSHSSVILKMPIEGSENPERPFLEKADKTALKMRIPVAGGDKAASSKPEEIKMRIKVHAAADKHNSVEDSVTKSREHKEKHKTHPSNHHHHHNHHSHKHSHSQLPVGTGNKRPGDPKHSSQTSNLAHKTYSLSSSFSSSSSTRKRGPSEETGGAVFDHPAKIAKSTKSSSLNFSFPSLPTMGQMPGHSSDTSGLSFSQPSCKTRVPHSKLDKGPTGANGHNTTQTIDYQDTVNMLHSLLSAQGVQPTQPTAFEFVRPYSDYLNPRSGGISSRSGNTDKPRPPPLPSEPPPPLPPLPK
Chain of CDK9/cyclin T1 (P50750 whole entry, the tested form may be a part): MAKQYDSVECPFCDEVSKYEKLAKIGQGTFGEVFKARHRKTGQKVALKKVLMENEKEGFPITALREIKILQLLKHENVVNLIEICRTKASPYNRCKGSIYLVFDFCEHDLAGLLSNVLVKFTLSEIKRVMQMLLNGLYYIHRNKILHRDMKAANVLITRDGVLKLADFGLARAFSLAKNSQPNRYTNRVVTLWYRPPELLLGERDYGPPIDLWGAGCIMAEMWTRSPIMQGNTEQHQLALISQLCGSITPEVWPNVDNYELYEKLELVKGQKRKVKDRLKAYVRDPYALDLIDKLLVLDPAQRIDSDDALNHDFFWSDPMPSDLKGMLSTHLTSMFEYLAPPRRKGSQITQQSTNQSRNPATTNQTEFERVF
Chain of Cyclin-dependent kinase 4/cyclin D1 (P11802 whole entry): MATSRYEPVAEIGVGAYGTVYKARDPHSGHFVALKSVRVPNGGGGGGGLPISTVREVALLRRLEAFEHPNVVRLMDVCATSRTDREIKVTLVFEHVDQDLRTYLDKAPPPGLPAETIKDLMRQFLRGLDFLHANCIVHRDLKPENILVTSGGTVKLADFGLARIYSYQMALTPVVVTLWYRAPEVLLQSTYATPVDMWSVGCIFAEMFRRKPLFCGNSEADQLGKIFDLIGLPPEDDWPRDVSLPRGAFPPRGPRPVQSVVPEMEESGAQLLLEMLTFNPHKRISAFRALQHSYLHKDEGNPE
Chain of Cyclin-dependent kinase 4/cyclin D1 (P24385 whole entry, further chain): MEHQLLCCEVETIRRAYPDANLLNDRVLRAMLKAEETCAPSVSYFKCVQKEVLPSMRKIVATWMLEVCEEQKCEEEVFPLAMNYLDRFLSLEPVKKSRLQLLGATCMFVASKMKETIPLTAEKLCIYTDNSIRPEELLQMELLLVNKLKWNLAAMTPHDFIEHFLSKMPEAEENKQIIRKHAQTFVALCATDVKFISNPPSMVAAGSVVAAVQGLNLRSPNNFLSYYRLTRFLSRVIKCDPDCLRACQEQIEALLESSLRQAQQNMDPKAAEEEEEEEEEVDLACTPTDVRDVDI

Regarding `CC(=O)c1c(C)c2cnc(Nc3ccc(N(C)CCN(C)C)cc3)nc2n(C2CCCC2)c1=O`, the IC50 in series [1] is under 3.2 nM; in series [2], 7.13 nM.

As to `CC(=O)c1c(C)c2cnc(Nc3ccc(OCCN(C)C)c(F)c3)nc2n(C2CCCC2)c1=O`, the 50% inhibitory concentration (IC50) in series [3] turned out to be 10.1 nM; in series [1], 3 nM; in series [2] it was 31.8 nM.

Take `CN(C)C(=O)c1cc2cnc(Nc3ccc(N4CCN(CCO)CC4)c(F)c3)nc2n1C12CC(C1)C2`: the IC50 in series [1] and in series [2] was under 3.2 nM throughout.

On to `CN1CCN(c2ccc(Nc3ncc4c(n3)N(C3CCCC3)C3(CC(=O)NC3=O)C4)cc2)CC1` (stereo not given), for which the IC50 in series [1] amounted to 25.7 nM; in series [2], 80.5 nM.

As to `CN1CCN(c2ccc(Nc3ncc4cc(C(=O)N(C)C)n(C56CC(C5)C6)c4n3)cc2)CC1`, in series [4], the bioavailability was 33.3%. Besides, the figures for the IC50 in series [1] and in series [2] were 3.81 nM and 7.08 nM, respectively. This compound also had a half-life in series [5] of 6 h.

As for `CC(C)N1CCN(c2ccc(Nc3ncc4c(n3)N(C3CCCC3)C3(CC(=O)NC3=O)C4)cc2)CC1` (stereo not given), the IC50 in series [1] was determined as 28.4 nM; in series [2], 70.7 nM.

For `CN1CCN(c2ccc(Nc3ncc4c(n3)N(C3CCCC3)C3(CC(=O)NC3=O)C4)cc2F)CC1` (stereo not given), the IC50 worked out at 70.6 nM in series [3], 14.4 nM in series [1] and 23.4 nM in series [2].

`CC(=O)c1c(C)c2cnc(Nc3ccc(N(C)CCN(C)C)cc3)nc2n(C23CC(C2)C3)c1=O`: the IC50 was 30 nM in series [1] and 149 nM in series [2].

Take `CN(C)C(=O)c1cc2cnc(Nc3ccc(N4CCNCC4)c(F)c3)nc2n1C12CC(C1)C2`: the IC50 in series [3] amounted to 10.1 nM; in series [1], 4.13 nM; in series [2], 6.18 nM.

Take `CC(=O)c1c(C)c2cnc(Nc3ccc(N4CC(C)NC(C)C4)cc3)nc2n(C2CCCC2)c1=O` (stereo not given): the IC50 in series [1] is under 3.2 nM; in series [2], 6.03 nM.

On to `CN1CCN(c2ccc(Nc3ncc4c(n3)N(C3CCCC3)C3(CCNC3=O)C4)cc2F)CC1` (stereo not given), for which the IC50 in series [3] came out at 258 nM; in series [1], 51.7 nM; in series [2], 46.6 nM.

For the compound `CN1CCN(C2CCN(c3ccc(Nc4ncc5cc(C(=O)N(C)C)n(C67CC(C6)C7)c5n4)cc3F)CC2)CC1`, the IC50 in series [1] is 3.78 nM; in series [2], 7.55 nM.

The record behind these values is ChEMBL document CHEMBL4673382, “Cyclin-Dependent Kinase Inhibitors in Cancer Therapeutics” (ACS Med Chem Lett, 2021).
